Measurements taken from BindingDB's records for doi:10.1021/jm201198w (University of Kentucky, 2012).

Target: Tyrosine-protein kinase SYK (Homo sapiens) (UniProt P43405)
Test: Inhibition of SYK

Nc1nc(Nc2ccc([C@H]3CC[C@H](N4CCOCC4)CC3)cc2)nn1-c1ccccn1
Ki: 0.22 µM
